In patent US20070259837A1, “Use of Non-Glucocorticoid Steroids for the Treatment of Muscular Dystrophy” (SANTHERA PHARMACEUTICALS (SCHWEIZ) AG, priority 2004, published 2007):
Where two headings read alike, the source gives them in different places.

Tested on: utrophin protein in human muscle cells derived from DMD patients
Experiment: Cell-based ELISA for normalized utrophin protein level in primary human myotube cultures
Conditions: for % UTR vs. PDN (normalized utrophin protein as % of PDN-treated sister cultures): same experiment; for activity at 0.5 µM: Myotube, read-out: % UTR vs. DMSO (normalized utrophin protein over DMSO-solvent treated control)
Protocol: The method used to detect and determine utrophin-inducing activity of non-glucocorticoid steroids has been described previously (Courdier-Fruh, I., Barman, L., Briguet, A. & Meier, T.; 2002, Neuromuscul. Disord.; 12 Suppl:S95). Briefly, primary human muscle cell cultures were prepared according to standard protocols (Askanas V, Kwan H, Alvarez R B, Engel W K, Kobayashi T, Martinuzzi A, Hawkins E F., 1987, J Neurocytol., 16:523-537). Test compounds and the glucocorticoid 6α-methylprednisolone-21 sodium succinate (Pharmacia & Upjohn; Solu-Medrol®, PDN) as reference compound were applied at 500 nM final concentration as soon as myoblasts started to differentiate into myotubes. Incubation with the test compound was ended as soon as well differentiated myotubes have formed, typically resulting in an incubation time with a test compound for 3-7 days.
Normalized concentrations of utrophin protein in human muscle cells cultured in microtiter plates were determined by a cell-based enzyme-linked immunosorbent assay (ELISA) procedure that allows a successive readout for the cell density and utrophin protein level. For calibration, the cell density and differentiation was determined by absorbance measurements of the total dehydrogenase enzyme activity in each well using the colorimetric CellTiter 96®AQ One Solution Reagent Proliferation Assay (Promega) according to the manufacturer's recommendation. Subsequently, cells were fixed, washed, permeabilized with 0.5% (v/v) Triton X-100 and unspecific antibody binding-sites were blocked by standard procedures. Utrophin protein levels were determined immunologically with utrophin-specific primary antibodies (mouse monoclonal antibody to the amino terminal portion of utrophin, NCL-DRP2, Novocastra Laboratories) and with appropriate peroxidase-coupled secondary antibodies using QuantaBlu™ Fluorogenic Peroxidase Substrate Kit (Pierce) for detection. Fluorescence measurements were carried out with a multilabel counter (Wallac) at λex=325 nm and at λem=420 nm. The primary readout of this signal is presented in arbitrary units. For calibration, the arbitrary units representing the relative utrophin protein content of each well were divided by the corresponding cell-titer absorbance value to correct for cell density. For comparison between experiments, the cell-titer corrected readout for utrophin protein content in each well was expressed in percent of solvent treated control cultures (set to 100%). PDN was included in all experiments as reference glucocorticoid, N=3-5 for each compound tested.
Non-glucocorticoid test compounds, applied in a concentration of 500 nM, were regarded as “positive” in case the increase in the level of utrophin protein was at least 20% (mean value) over control cultures treated with the appropriate dilution of DMSO solvent as control and containing no test compound.
A range of different pharmaceutical compounds were tested for their ability to increase levels of utrophin protein in primary human myotube cultures. The cell-based ELISA protocol used to detect the level of utrophin protein is provided above and described in Courdier-Fruh, I., Barman, L., Briguet, A. & Meier, T, 2002, Neuromuscul. Disord.: 12, Suppl:S95. Briefly, fixed and permeabilized human muscle cells derived from DMD patients and cultured in 96-well cell culture plates were incubated with antibodies specific for utrophin at a dilution of 1:1'000 in blocking solution (phosphate buffered saline (PBS) supplemented with 2% fetal calf serum and 1% bovine serum albumin) for 10-15 hours at 4° C. Following several washing steps with 0.1% Triton X-100 in PBS, peroxidase-coupled secondary antibodies diluted 1:3'000 in blocking solution were applied in each well for 1-2 hours at room temperature. Signal detection, data acquisition and normalization was performed as described above and in Courdier-Fruh, I., Barman, L., Briguet, A. & Meier, T, 2002, Neuromuscul. Disord.: 12, Suppl:S95. […]

[1] = 500 nM compound, human muscle cultures, mean value, N=3-6

| Compound | % UTR vs. PDN (normalized utrophin protein as % of PDN-treated sister cultures) [1] [%] | activity at 0.5 µM (Homo sapiens) [%] | activity at 0.5 µM [1] [%] |
| --- | --- | --- | --- |
| CC(C)CCCC(C)[C@H]1CCC2C3C[C@@H](O)[C@@]4(O)C[C@@H](O)CC[C@]4(C)C3CC[C@@]21C (stereo partly drawn) [Example 35] | 94 | 122 |  |
| CC(C)C/C=C\C(C)[C@H]1CC[C@@]2(C)C3=CC=C4C(C)(C)[C@@H](O)CC[C@]4(C)C3CC[C@]12C (stereo partly drawn) [Example 36] | 96 | 122 |  |
| CC(C)=CCCC(C)[C@H]1CC[C@@]2(C)C3=C(CC[C@]12C)[C@@]1(C)CC[C@H](O)C(C)(C)C1CC3 (stereo partly drawn) [Example 37, Lanosterol] | 102 | 123 |  |
| C[C@]12CCC3C(CC[C@H]4C[C@@H](OC(=O)c5ccccc5)CC[C@]34C)C1CC[C@@H]2OC(=O)c1ccccc1 (stereo partly drawn) [Example 38] | 108 | 126 |  |
| C[C@]12CC[C@H](OC(=O)c3ccccc3)CC1=CCC1C2CC[C@@]2(C)C1CC[C@@H]2NC(=O)c1ccccc1 (stereo partly drawn) [Example 39] | 106 | 121 |  |
| C#C[C@]1(O)CCC2C3CCC4=CC(=O)CC[C@@H]4C3CC[C@@]21CC (stereo partly drawn) [Example 41, Norgestrel] | 103 |  | 130 |
| C#C[C@]1(OC(C)=O)CC[C@H]2[C@@H]3CCC4=CC(=O)CC[C@@H]4[C@H]3CC[C@@]21C [Example 42, Norethisterone acetate] | 101 |  | 128 |
| CCC(=O)O[C@H]1CC[C@]2(C)C3CC[C@]4(C)C(=O)CCC4C3CC[C@H]2C1 (stereo partly drawn) [Example 43] | 99 | 128 |  |
| CC(=O)OC1CCC2C3CC[C@H]4C[C@H](O)CC[C@]4(C)C3CC[C@]12C (stereo partly drawn) [Example 44] | 99 | 129 |  |
| C#C[C@]1(OC(C)=O)CCC2C3CCC4=C[C@@H](OC(C)=O)CC[C@@H]4C3CC[C@@]21C (stereo partly drawn) [Example 45] | 99 |  | 130 |
| C[C@]12CCC3C(CC[C@H]4C[C@@H](OC(=O)c5ccccc5)CC[C@]34C)C1CC(=O)C2 (stereo partly drawn) [Example 46] | 112 | 131 |  |
| C[C@@]12C=CCC1C1CC[C@H]3C[C@H](O)CC[C@]3(C)C1CC2 (stereo partly drawn) [Example 47] | 98 | 127 |  |
| CCC(=O)O[C@H]1CCC2C3CCC4=CC(=O)CC[C@]4(C)C3CC[C@@]21C (stereo partly drawn) [Example 48, Testosterone propionate] | 98 | 122 |  |
| C[C@]12CC(=O)C3C(CC[C@H]4C[C@@H](O)CC[C@]34C)C1CCC2=O (stereo partly drawn) [Example 49] | 97 | 127 |  |
| C[C@]12CC[C@H](Cl)CC1=CCC1C2CC[C@]2(C)C(=O)CCC12 (stereo partly drawn) [Example 50] | 98 | 123 |  |
| C[C@]12C=CC(=O)C=C1CCC1C2=CC[C@]2(C)C(C(=O)CN3CCN(c4cc(N5CCCC5)nc(N5CCCC5)n4)CC3)CCC12.O=C(O)/C=C\C(=O)O (stereo partly drawn) [Example 51] | 113 | 143 |  |
| CC(=O)OCC(=O)[C@H]1CCC2C3CC[C@@H]4C[C@H](OC(C)=O)CC[C@]4(C)C3[C@@H](O)C[C@@]21C (stereo partly drawn) [Example 52] | 112 | 145 |  |
| C[C@]12CCC(=O)C=C1CC[C@@H]1[C@@H]2CC[C@@]2(C)[C@H]1CC[C@]2(O)C(=O)CO [Example 53, Cortexolone] | 111 |  | 146 |

| Compound | % UTR vs. PDN (normalized utrophin protein as % of PDN-treated sister cultures) [1] [%] | activity at 0.5 µM (Homo sapiens) [%] | activity at 0.5 µM [1] [%] |
| --- | --- | --- | --- |
| CC(=O)O[C@@]1(C(C)=O)CCC2C3C[C@H](C)C4=CC(=O)CC[C@]4(C)C3CC[C@@]21C (stereo partly drawn) [Example 54] | 106 |  | 135 |
| CC(=O)O[C@H]1CC[C@]2(C)C3=CC[C@]4(C)C(C(C)=O)=CCC4C3CC[C@H]2C1 (stereo partly drawn) [Example 55] | 107 | 125 |  |
| CC(=O)[C@@]12O[C@@H]1CC1C3CC=C4C[C@@H](O)CC[C@]4(C)C3CC[C@@]12C (stereo partly drawn) [Example 56] | 105 | 137 |  |
| CC(=O)[C@H]1CCC2C3CCC4=CC(=O)CC[C@]4(C)C3[C@H](OC(=O)c3ccccc3)C[C@@]21C (stereo partly drawn) [Example 57] | 104 | 120 |  |
| CC(=O)[C@H]1CCC2C3CCC4=CC(=O)CC[C@]4(C)C3[C@H](O)C[C@@]21C (stereo partly drawn) [Example 58] | 102 | 133 |  |
| CC(=O)OCC(=O)C1=CCC2C3CC[C@H]4C[C@@H](OC(C)=O)CC[C@]4(C)C3CC[C@]12C (stereo partly drawn) [Example 59] | 102 | 121 |  |
| CC(=O)O[C@H]1CC[C@]2(C)C3CC[C@]4(C)C(C(C)=O)=CCC4C3CC[C@H]2C1 (stereo partly drawn) [Example 60] | 101 | 127 |  |
| CC(=O)[C@@]12O[C@@H]1CC1C3CC(C)=C4C[C@@H](O)CC[C@]4(C)C3CC[C@@]12C (stereo partly drawn) [Example 61] | 100 | 130 |  |
| CC(=O)C1CCC2C3CC[C@H]4C[C@@H](O)CC[C@]4(C)C3CC[C@]12C (stereo partly drawn) [Example 62] | 99 | 129 |  |
| CC(=O)OCC(=O)[C@@]1(O)CCC2C3CCC4=CC(=O)CC[C@]4(C)C3CC[C@@]21C (stereo partly drawn) [Example 63, Cortexolone 21-acetate] | 99 | 129 |  |
| CC(=O)C1CCC2C3C[C@@H]4O[C@@]45C[C@@H](O)CC[C@]5(C)C3CC[C@]12C (stereo partly drawn) [Example 64] | 97 | 127 |  |
| CC(=O)C1CCC2C3CC[C@H]4C[C@H](O)CC[C@]4(C)C3C[C@H](O)[C@]12C (stereo partly drawn) [Example 65] | 97 | 121 |  |
| CC(=O)[C@@]1(O)CCC2C3CCC4=CC(=O)CC[C@]4(C)C3CC[C@@]21C (stereo partly drawn) [Example 66] | 97 |  | 127 |
| CC(=O)OCC(=O)[C@H]1CCC2C3CCC4=CC(=O)CC[C@]4(C)C3CC[C@@]21C (stereo partly drawn) [Example 67] | 96 |  | 120 |
| CC(=O)OCC(=O)[C@@]12O[C@@H]1CC1C3CC[C@@H]4C[C@H](O)CC[C@]4(C)C3CC[C@@]12C (stereo partly drawn) [Example 68] | 95 | 125 |  |
| C[C@]12C[C@H](O)C3C(CC[C@@H]4C[C@H](O)CC[C@]34C)C1CCC2C(=O)CO (stereo partly drawn) [Example 69] | 95 | 123 |  |
| C[C@]12CC(=O)C3C(CC[C@@H]4C[C@H](O)CC[C@]34C)C1CC[C@]2(O)C1(CO)OCCO1 (stereo partly drawn) [Example 70] | 94 | 122 |  |
| C[C@]12CCC3c4ccc(O)cc4CCC3C1CC[C@@H]2O (stereo partly drawn) [Example 71, Estradiol] | 105 |  | 136 |
